Each structure is given as a SMILES string.

By IC50 is commonly meant the midpoint of a concentration-inhibition curve.

For one test, the system named is HCV genotype 1a replicon. Description: HCV replicon assay, genotype 1a (cell ELISA for replicon-encoded NS3/4A). It is filed as cell-based. As to conditions: Hepatitis C virus, 96 h, read-out: 1a IC50. How it is done:
(§1) Measurement of inhibition by compounds was performed using the HCV replicon system. Several different replicons encoding different HCV genotypes or mutations were used. In addition, potency measurements were made using different formats of the replicon assay, including different ways of measurements and different plating formats. See Jan M. Vrolijk et al., A replicons-based bioassay for the measurement of interferons in patients with chronic hepatitis C, 110 J. V[…] 201 (2003); Steven S. Carroll et al., Inhibition of Hepatitis C Virus RNA Replication by 2′-Modified Nucleoside Analogs, 278(14) J. BIOLOGICAL CHEMISTRY 11979 (2003). However, the underlying principles are common to all of these determinations, and are outlined below.
(§2) Stable neomycin phosphotransferase encoding replicons-harboring cell lines were used, so all cell lines were maintained under G418 selection prior to the assay. Potency was determined using a cell ELISA assay with an antibody to the replicons encoded NS3/4a protease. See Caterina Trozzi et al., In Vitro Selection and Characterization of Hepatitis C Virus Serine Protease Variants Resistant to an Active-Site Peptide Inhibitor, 77(6) J. Virol. 3669 (2003). To initiate an assay, replicon cells were plated in the presence of a dilution series of test compound in the absence of G418. Typically, the assays were performed in a 96-well plate formate for manual operation, or a 384-well plate format for automated assay. Replicon cells and compound were incubated for 96 hours. At the end of the assay, cells were washed free of media and compound, and the cells were then lysed. RNA was quantified indirectly through detection of replicon-encoded NS3/4A protein levels, through an ELISA-based assay with an antibody specific for NS3/4A. IC50 determinations were calculated as a percentage of a DMSO control by fitting the data to a four-parameter fit function and the data obtained is provided in the table below.
(§3) Data for selected compounds of the present invention was obtained for genotypes 1a and 1b using this method and is provided in the table below: […]
On the technique in general: Replicon systems follow genome replication, usually without infectious particles.

A further test deals with HCV genotype 1b replicon. The test is described as follows: HCV replicon assay, genotype 1b (cell ELISA for replicon-encoded NS3/4A). It is filed as cell-based. As to conditions: Hepatitis C virus, 96 h, read-out: 1b IC50. How it is done: as §1, §2, §3

As for `CNC(=O)c1c(-c2ccc(OC)nc2)oc2cc(N(C)S(C)(=O)=O)c(-c3ccc4c(n3)-c3nc5c(F)cccc5n3CO4)cc12` [Compound 20, 5-(11-fluoro-6H-benzo[4,5]imidazo[1,2-c]pyrido[2,3-e][1,3]oxazin-2-yl)-2-(6-methoxypyridin-3-yl)-N-methyl-6-(N-methylmethylsulfonamido)benzofuran-3-carboxamide], the IC50 in the test on HCV genotype 1a replicon turned out to be 3.7 nM; with HCV genotype 1b replicon it was 2.5 nM.

Take `CNC(=O)c1c(/C(C)=N/OC)oc2cc(N(C)S(C)(=O)=O)c(-c3ccc4c(n3)-c3cc5c(F)cccc5n3CO4)cc12` [Compound 59, 5-(11-fluoro-6H-pyrido[2′,3′:5,6][1,3]oxazino[3,4-a]indol-2-yl)-2-(1-(methoxyimino)ethyl)-N-methyl-6-(N-methylmethylsulfonamido)benzofuran-3-carboxamide]: the IC50 was found to be 34 nM in the test with HCV genotype 1a replicon and 13 nM in the test with HCV genotype 1b replicon.

(Values after patent publication US9242998B2, “Tetracyclic heterocycle compounds and methods of use thereof for the treatment of hepatitis C” (priority 2013, dated 2016).)
